EC50 data for one compound are collected here from ChEMBL document CHEMBL1147827, “A pyrimidine-pyrazolone nucleoside chimera with potent in vitro anti-orthopoxvirus activity” (Bioorg Med Chem Lett, 2006).

In this assay the test system is Vaccinia virus. As to the kind of experiment: Antiviral activity against Vaccinia virus Copenhagen in HFF cells assessed as reduction in cytopathogenicity. It counts as functional, organism-based. The conditions noted are these: Orthopoxvirus vaccinia.

As to `CC(=O)OC[C@H]1O[C@@H](n2cc(/C=C3\C(=O)N(c4ccccc4)N=C3C)c(=O)[nH]c2=O)C[C@@H]1OC(C)=O`, the EC50 was found to be 32 µM.
